We go through 45 compounds from US4346094A, “3-Aryl-5-isothiazolecarboxylic acids and related compounds used to lower uric acid levels” (Eli Lilly and Company, priority 1980, dated 1982).

The target in this assay is T1, xanthine oxidase (Bos taurus, UniProt P80457).
T1 construct: purchased Sigma Chemical Company, St. Louis, Mo; host or cells: milk (grade III, chromatographically purified)
Put plainly: in vitro xanthine oxidase assay (rate of uric acid formation from xanthine). The format is biochemical. Here is the method:
Since uric acid is produced by the oxidation of, first, hypoxanthine to xanthine and, second, of xanthine to uric acid via the enzyme, xanthine oxidase, an inhibitor of xanthine oxidase in vivo would obviously decrease the uric acid concentrations in the blood.
Xanthine oxidase activity was measured at room temperature by the rate of uric acid formation from xanthine substrate. In a total volume of 1 ml., the incubation mixture contained 50 micromoles of potassium phosphate buffer at pH 7.4, 0.05 micromoles of xanthine and 0.01 units of enzyme preparation (chromatographically purified milk xanthine oxidase, grade III, obtained from Sigma Chemical Company, St. Louis, Mo.). The absorbence change at 292 nm was recorded by a Gilford recording spectrophotometer and the uric acid formed was calculated using an extinction coefficient of 12 mM^-1 Cm^-1 at 292 nm.

Where [1] appears, read: milk xanthine oxidase 0.01 units, 0.05 micromoles xanthine in 1 ml, pH 7.4, room temperature, 292 nm, read-out: I50 (concentration of drug which inhibits 50% of the oxidation of xanthine to uric acid by the xanthine oxidase preparation) (converted).

Like-named read-outs stand apart in the source and are kept apart here.

T1 sequence (P80457 whole entry): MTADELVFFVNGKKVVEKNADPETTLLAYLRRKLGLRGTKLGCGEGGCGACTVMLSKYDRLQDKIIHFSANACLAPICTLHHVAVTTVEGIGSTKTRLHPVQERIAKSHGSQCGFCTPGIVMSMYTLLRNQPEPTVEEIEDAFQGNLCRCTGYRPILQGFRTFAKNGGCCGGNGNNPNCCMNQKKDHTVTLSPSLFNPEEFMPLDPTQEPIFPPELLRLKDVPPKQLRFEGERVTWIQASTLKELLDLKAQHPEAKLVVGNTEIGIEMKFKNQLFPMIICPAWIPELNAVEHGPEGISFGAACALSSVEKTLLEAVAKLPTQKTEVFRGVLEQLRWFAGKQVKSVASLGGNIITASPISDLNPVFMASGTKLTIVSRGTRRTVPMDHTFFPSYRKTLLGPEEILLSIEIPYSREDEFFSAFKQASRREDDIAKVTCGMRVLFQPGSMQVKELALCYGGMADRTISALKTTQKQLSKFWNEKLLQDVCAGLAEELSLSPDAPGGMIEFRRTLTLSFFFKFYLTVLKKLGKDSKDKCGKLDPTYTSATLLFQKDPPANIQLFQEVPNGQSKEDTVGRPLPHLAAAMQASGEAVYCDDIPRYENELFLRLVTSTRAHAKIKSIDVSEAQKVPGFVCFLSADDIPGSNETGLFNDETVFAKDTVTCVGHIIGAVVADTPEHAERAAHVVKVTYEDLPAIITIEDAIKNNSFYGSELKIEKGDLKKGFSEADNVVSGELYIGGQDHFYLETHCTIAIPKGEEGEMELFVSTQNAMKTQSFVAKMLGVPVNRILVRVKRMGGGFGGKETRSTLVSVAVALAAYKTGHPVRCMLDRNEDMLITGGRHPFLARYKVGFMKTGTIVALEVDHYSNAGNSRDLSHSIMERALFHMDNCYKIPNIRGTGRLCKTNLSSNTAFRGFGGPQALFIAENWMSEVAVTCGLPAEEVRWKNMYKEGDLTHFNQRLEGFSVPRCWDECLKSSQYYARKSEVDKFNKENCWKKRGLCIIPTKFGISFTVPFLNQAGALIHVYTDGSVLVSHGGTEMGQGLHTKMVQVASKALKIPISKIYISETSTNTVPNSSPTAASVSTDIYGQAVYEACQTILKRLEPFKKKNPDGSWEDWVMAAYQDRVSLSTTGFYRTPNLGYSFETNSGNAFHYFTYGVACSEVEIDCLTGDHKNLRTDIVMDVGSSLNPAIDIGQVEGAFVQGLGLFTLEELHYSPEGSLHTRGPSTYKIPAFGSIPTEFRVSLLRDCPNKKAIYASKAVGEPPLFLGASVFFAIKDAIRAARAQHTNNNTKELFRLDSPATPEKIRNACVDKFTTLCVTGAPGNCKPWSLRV

Regarding `Nc1c(-c2cccc(F)c2)nsc1C(=O)O` [R=3-F, R^1=H, 3-(3-fluorophenyl)-4-amino-5-isothiazolecarboxylic acid], the IC50 under setting [1] is 1260 nM. Same read-out and setting: under `Nc1c(-c2ccc3c(c2)OCO3)nsc1C(=O)O` [3,4-methylenedioxy, 3-(1,3-benzodioxyl-5-yl)-4-amino-5-isothiazolecarboxylic acid] stands 492 nM; under `Cc1cccc(-c2nsc(C(=O)O)c2Cl)c1` [R=3-CH3, X=Cl, 3-(3-tolyl)-4-chloro-5-isothiazolecarboxylic acid], 134 nM; under `Nc1c(-c2cccc(Cl)c2)nsc1C(=O)O` [R=3-Cl, R^1=H, 3-(3-chlorophenyl)-4-amino-5-isothiazolecarboxylic acid], 267 nM.

As for `Nc1c(-c2cccs2)nsc1C(=O)O` [Ar=2-thienyl, 3-(2-thienyl)-4-amino-5-isothiazolecarboxylic acid], the IC50 under setting [1] is 3310 nM. Take `COc1cccc(-c2nsc(C(=O)O)c2N)c1` [R=3-OCH3, R^1=H, 3-(3-methoxyphenyl)-4-amino-5-isothiazolecarboxylic acid]: under setting [1], the IC50 is 1160 nM. Turning to `O=C(O)c1snc(-c2ccccc2)c1O` [R=H, X=OH, 3-phenyl-4-hydroxy-5-isothiazolecarboxylic acid], the IC50 under setting [1] was 203 nM. As for `O=C(O)c1snc(-c2cccc(Cl)c2)c1I` [R=3-Cl, X=I, 3-(3-chlorophenyl)-4-iodo-5-isothiazolecarboxylic acid], the IC50 under setting [1] is 903 nM. With `O=C(O)c1cc(-c2ccc(Cl)cc2)ns1` [R=4-Cl, X=H, 3-(4-chlorophenyl)-5-isothiazolecarboxylic acid], the IC50 under setting [1] is 1960 nM. Same read-out and setting: under `CCCOc1ccc(-c2nsc(C(=O)O)c2N)cc1` [R=4-OC3 H7, R^1=H, 3-(4-propoxyphenyl)-4-amino-5-isothiazolecarboxylic acid] stands 86.2 nM.

`O=C(O)c1snc(-c2ccc(F)cc2)c1Cl` [R=4-F, X=Cl, 3-(4-fluorophenyl)-4-chloro-5-isothiazolecarboxylic acid]: the IC50 under setting [1] was 202 nM. In the case of `COc1ccc(-c2nsc(C(=O)O)c2N)cc1` [R=4-OCH3, R^1=H, 4-amino-3-(4-methoxyphenyl)-5-isothiazolecarboxylic acid], under setting [1], the IC50 was 559 nM.

As to `COc1ccc(-c2nsc(C(=O)O)c2N)cc1OC` [R=3-OCH3, R^1=4-OCH3, 3-(3,4-dimethoxyphenyl)-4-amino-5-isothiazolecarboxylic acid], the IC50 under setting [1] was 410 nM. For the compound `CNc1c(-c2cccc(C(F)(F)F)c2)nsc1C(=O)O` [R=3-CF3, X=NHCH3, 3-(3-trifluoromethylphenyl)-4-methylamino-5-isothiazolecarboxylic acid], the IC50 under setting [1] was 562 nM. Regarding `O=C(O)c1snc(-c2cccc(C(F)(F)F)c2)c1F` [R=3-CF3, X=F, 3-(3-trifluoromethylphenyl)-4-fluoro-5-isothiazolecarboxylic acid], under setting [1], the IC50 is 68.7 nM. As to `COc1ccc(-c2nsc(C(=O)O)c2N)cc1F` [R=3-F, R^1=4-OCH3, 3-(3-fluoro-4-methoxyphenyl)-4-amino-5-isothiazolecarboxylic acid], under setting [1], the IC50 was 67.1 nM.

For `COc1cccc(-c2nsc(C(=O)O)c2Cl)c1` [R=3-OCH3, X=Cl, 3-(3-anisyl)-4-chloro-5-isothiazolecarboxylic acid], the IC50 under setting [1] is 108 nM. `Cc1ccc(-c2nsc(C(=O)O)c2N)cc1` [R=4-CH3, R^1=H, 3-(p-tolyl)-4-amino-5-isothiazolecarboxylic acid]: under setting [1], the IC50 was 1200 nM. Same read-out and setting: under `O=C(O)c1cc(-c2cccc(Cl)c2)ns1` [R=3-Cl, X=H, 3-(3-chlorophenyl)-5-isothiazolecarboxylic acid] stands 334 nM. Turning to `CCOc1ccc(-c2nsc(C(=O)O)c2N)cc1` [R=4-OC2 H5, R^1=H, 3-(4-ethoxyphenyl)-4-amino-5-isothiazolecarboxylic acid], the IC50 under setting [1] was 106 nM. Regarding `COc1ccc(-c2nsc(C(=O)O)c2Cl)cc1` [R=4-OCH3, X=Cl, 3-(4-anisyl)-4-chloro-5-isothiazolecarboxylic acid], the IC50 under setting [1] was 51.9 nM. `O=C(O)c1snc(-c2cccc(Cl)c2)c1Cl` [R=3-Cl, X=Cl, 3-(3-chlorophenyl)-4-chloro-5-isothiazolecarboxylic acid] had an IC50 of 69.3 nM.

For the compound `COc1cccc(-c2nsc(C(=O)O)c2I)c1` [R=3-OCH3, X=I, 3-(3-anisyl)-4-iodo-5-isothiazolecarboxylic acid], the IC50 under setting [1] is 1720 nM.

Turning to `O=C(O)c1snc(-c2ccc(Cl)cc2)c1Br` [R=4-Cl, X=Br, 3-(4-chlorophenyl)-4-bromo-5-isothiazolecarboxylic acid], the IC50 is 314 nM. As for `Nc1c(-c2ccc(F)cc2)nsc1C(=O)O` [R=4-F, R^1=H, 3-(4-fluorophenyl)-4-amino-5-isothiazolecarboxylic acid], the IC50 under setting [1] is 1600 nM. Still for that read-out and setting: as for `CC(C)Oc1ccc(-c2nsc(C(=O)O)c2N)cc1` [R=4-OCH(CH3)2, R^1=H, 3-(4-isopropoxyphenyl)-4-amino-5-isothiazolecarboxylic acid], the figure is 68.3 nM. Still for that read-out and setting: as for `O=C(O)c1cc(-c2ccccc2)ns1` [R=H, X=H, 3-phenyl-5-isothiazolecarboxylic acid], the figure is 2340 nM; as for `Nc1c(-c2ccc(Cl)c(Cl)c2)nsc1C(=O)O` [R=3-Cl, R^1=4-Cl, 3-(3,4-dichlorophenyl)-4-amino-5-isothiazolecarboxylic acid], 214 nM; as for `O=C(O)c1snc(-c2ccc(Cl)cc2)c1I` [R=4-Cl, X=I, 3-(4-chlorophenyl)-4-iodo-5-isothiazolecarboxylic acid], 2740 nM. `Cc1ccc(-c2nsc(C(=O)O)c2Cl)cc1` [R=4-CH3, X=Cl, 3-(4-tolyl)-4-chloro-5-isothiazolecarboxylic acid]: the IC50 under setting [1] was 315 nM. Same read-out and setting: under `O=C(O)c1snc(-c2ccccc2)c1Cl` [R=H, X=Cl, 3-phenyl-4-chloro-5-isothiazolecarboxylic acid] stands 225 nM; under `Nc1c(-c2ccccc2)nsc1C(=O)O` [R=H, R^1=H, 3-phenyl-4-amino-5-isothiazolecarboxylic acid], 2130 nM; under `O=C(O)c1snc(-c2ccc(Cl)cc2)c1Cl` [R=4-Cl, X=Cl, 3-(4-chlorophenyl)-4-chloro-5-isothiazolecarboxylic acid], 365 nM. Turning to `Nc1c(-c2ccc(Cl)cc2)nsc1C(=O)O` [R=4-Cl, R^1=H, 3-(4-chlorophenyl)-4-amino-5-isothiazolecarboxylic acid], under setting [1], the IC50 was 2750 nM. Turning to `COc1ccc(-c2cc(C(=O)O)sn2)cc1` [R=4-OCH3, X=H, 3-(4-anisyl)-5-isothiazolecarboxylic acid], under setting [1], the IC50 was 276 nM. The same measure, in the same setting: as for `Cc1cccc(-c2nsc(C(=O)O)c2N)c1` [R=3-CH3, R^1=H, 3-(3-tolyl)-4-amino-5-isothiazolecarboxylic acid], the figure is 640 nM; as for `COc1cccc(-c2cc(C(=O)O)sn2)c1` [R=3-OCH3, X=H, 3-(3-anisyl)-5-isothiazolecarboxylic acid], 3740 nM. Take `Nc1c(-c2ccc(C(F)(F)F)cc2)nsc1C(=O)O` [R=4-CF3, R^1=H, 3-(4-trifluoromethylphenyl)-4-amino-5-isothiazolecarboxylic acid]: the IC50 under setting [1] is 624 nM. For `O=C(O)c1snc(-c2cccc(Cl)c2)c1Br` [R=3-Cl, X=Br, 3-(3-chlorophenyl)-4-bromo-5-isothiazolecarboxylic acid], the IC50 under setting [1] was 81.6 nM. For the compound `COc1cc(OC)cc(-c2nsc(C(=O)O)c2N)c1` [R=3-OCH3, R^1=5-OCH3, 3-(3,5-dimethoxyphenyl)-4-amino-5-isothiazolecarboxylic acid], the IC50 under setting [1] was 89.2 nM. Same read-out and setting: as for `O=C(O)c1snc(-c2cccc(F)c2)c1Cl` [R=3-F, X=Cl, 3-(3-fluorophenyl)-4-chloro-5-isothiazolecarboxylic acid], the figure is 116 nM; as for `Nc1c(-c2ccc(Br)cc2)nsc1C(=O)O` [R=4-Br, R^1=H, 3-(4-bromophenyl)-4-amino-5-isothiazolecarboxylic acid], 2760 nM; as for `Nc1c(-c2cccnc2)nsc1C(=O)O` [Ar=3-pyridinyl, 3-(3-pyridyl)-4-amino-5-isothiazolecarboxylic acid], 1490 nM. Same read-out and setting: as for `COc1ccc(-c2nsc(C(=O)O)c2N)cc1C` [R=3-CH3, R^1=4-OCH3, 3-(4-methoxy-3-methylphenyl)-4-amino-5-isothiazolecarboxylic acid], the figure is 151 nM. Regarding `O=C(O)c1snc(-c2cccc(C(F)(F)F)c2)c1I` [R=3-CF3, X=I, 3-(3-trifluoromethylphenyl)-4-iodo-5-isothiazolecarboxylic acid], the IC50 is 238 nM.
